Like-named read-outs stand apart in the source and are kept apart here. Each block holds one molecule with its values, some of them ahead of it.
Key:
[1] = tested on: growth hormone (GH); assay: In-vivo pharmacodynamic test in rats: plasma GH level by ELISA after oral administration; parameters: species or system Sprague-Dawley (SD) rats; conditions: for GH concentration in rats: male SD rats, oral, 4 mpk in 10% HS15
[2] = Subacute toxicity test in rats (14 days oral, 14 days recovery); format: in vivo, Sprague-Dawley (SD) rats
Protocol: Male Sprague-Dawley (SD) rats (180-220 g) were purchased from Liaoning Changsheng Biotechnology Co., Ltd. (Liaoning, China). All animals were kept in a temperature-controlled room (22±2° C.) with a relative humidity of 55±15% and a 12/12-h light/dark period (the light was turned off at 8:00 pm), with 3 animals in each cage. Animals were adapted to the environment for 1 week after arrival, and allowed to free access to indicated feed and sterilized water, and the padding in the animal cage was changed twice a week.
The compound of the present invention was prepared in 10% HS15.
Multiple doses (30 mpk, 100 mpk and 300 mpk) of the compound of the present invention were orally administered to rats. The compound was administered once a day for consecutive 14 days. The rats were weighed twice a week. […] Compound 5 was given by oral gavage for consecutive 14 days and then recovered for 2 weeks.

[3] = tested on: Caco-2 cells; assay: Caco-2 cell transport assay (bidirectional); conditions: Table 3-1, Caco-2, 2.00 μM
[4] = biological target: human GHSR (Homo sapiens (Human), UniProt Q92847); assay: Human GHSR agonist activity, FLIPR calcium fluorescence in human GHSR/CHO stable cell line; format: cell-based
Protocol: This method was used to determine the agonism effect of the compound of the invention on the activity of human GHSR protein expressed in human GHSR/CHO stable cell line.
Preparation of buffer: HBSS (1X):HEPES (1M)=49:1, containing 0.5% BSA.
Cells of human GHSR/CHO stable cell line were inoculated into a 384-well plate, and incubated overnight. Then, the cell plate was removed, and the medium was discarded. 20 uL buffer as slowly added to each well, and then 20 uL 2X Fluo-4 Direct™ No-wash Loading Buffer was added to each well. The cell plate was incubated in an incubator at 37° C. and 5% CO2 for 50 min, and then removed and allowed to stand at room temperature for 10 min. 30 uL buffer was added to each well in the compound plate; and a buffer plate was additionally prepared and 30 uL buffer was added to each well. Test for agonism of compound: An FLIPR instrument and running software were used. 10 uL buffer was transferred to the cell plate and the value of fluorescence signal was read. 10 uL compound was transferred to the cell plate and the value of fluorescence signal was read. An FLIPR program was used to calculate the difference between the maximum value and the minimum value from the 91st signal point to the 230th signal point. The EC50 value of the compound can be calculated by software from fluorescence values corresponding to various concentrations.

[5] = Metabolism (pharmacokinetic) test in rats, oral gavage
[6] = in vitro; conditions: human; for Papp B→A at 2 h, 2 μM: Caco-2, pH 7.4, Mean Papp B to A
[7] = Caco-2 cell transport assay (bidirectional); conditions: human, Caco-2, 2.00 μM; for efflux ratio at 2 h, 2 μM: Caco-2, pH 7.4, Efflux Ratio; for Papp A→B at 2 h, 2 μM: Caco-2, pH 7.4, Mean Papp A to B; for Papp A→B at 2 h, 2 μM / Papp B→A at 2 h, 2 μM: pH 7.40; for Papp B→A at 2 h, 2 μM: Caco-2, pH 7.4, Mean Papp B to A
[8] = tested on: Caco-2 cells; conditions: human, Caco-2, 2 h, 2 μM, pH 7.4
[9] = time point 0 min (basic sampling before dosing)
[10] = oral gavage 30, 100, 300 mpk once a day for 14 days, 2 weeks recovery
[11] = rats, single oral gavage, 1 mg/mL, 3 mL/kg, active ingredient ibutamoren measured in whole blood

Sequence of human GHSR (Q92847 whole entry): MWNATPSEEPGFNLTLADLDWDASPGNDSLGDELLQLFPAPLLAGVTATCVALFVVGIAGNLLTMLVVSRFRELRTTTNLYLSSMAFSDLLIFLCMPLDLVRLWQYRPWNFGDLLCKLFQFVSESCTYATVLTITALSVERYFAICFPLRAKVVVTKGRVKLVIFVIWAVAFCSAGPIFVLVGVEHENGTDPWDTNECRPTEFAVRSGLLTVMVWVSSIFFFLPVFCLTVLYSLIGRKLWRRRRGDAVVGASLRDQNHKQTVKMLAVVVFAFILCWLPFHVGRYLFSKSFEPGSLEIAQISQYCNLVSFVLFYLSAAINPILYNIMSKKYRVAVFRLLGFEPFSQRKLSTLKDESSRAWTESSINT

SMILES: CC(OC(=O)NC(C)(C)C(=O)N[C@H](COCc1ccccc1)C(=O)N1CCC2(CC1)CN(S(C)(=O)=O)c1ccccc12)OC(=O)C(C)C (stereo partly drawn) [Compound 5, (4R)-7,7-dimethyl-4-(1-(methylsulfonyl)spiro[indol-3,4′-piperidin]-1′-carbonyl)-6,9-dioxo-1-phenyl-2,10-dioxa-5,8-diazadodecan-11-yl Isobutyrate]
GH level in the circulation of rats (in words) ([1]; 15 minutes after administration, male rats): significantly increased
GH concentration in rats [1, 9]: 12.23 ± 10.44 ng/mL
GH concentration in rats ([1]; time point 15 min): 51.12 ± 33.98 ng/mL
GH concentration in rats ([1]; time point 30 min): 19.07 ± 7.17 ng/mL
GH concentration in rats ([1]; time point 60 min): 11.76 ± 4.14 ng/mL
Subacute toxicity overall finding ([2]; dosage 80 times): no obvious abnormality
Anatomic findings [2, 10]: no anatomic abnormality
Food intake and daily behavior [2, 10]: no significant abnormality
Weight change ([2]; oral gavage 30, 100, 300 mpk once a day for 14 days, 2 weeks recovery (FIG. 1)): no significant difference
Efflux Ratio [3]: 170
Mean Papp A to B ([3]; 2 hrs, pH 7.40): 0.0518 10^−6 cm/s
Mean Papp B to A ([3]; 2 hrs, pH 7.40): 8.80 10^−6 cm/s
EC50 ([4]; human GHSR/CHO stable cell line, Fluo-4 FLIPR): 14.6 nM
Cmax and AUC compared with positive control ibutamoren (in words) ([5]; rats, oral gavage): obviously superior
AUCINF-obs [5, 11]: 23.31 ± 10.81 ng·h/mL
AUClast [5, 11]: 21.61 ± 9.52 ng·h/mL
Cmax [5, 11]: 18.50 ± 13.60 ng/mL
T1/2 [5, 11]: 2.43 ± 0.13 h
Tmax [5, 11]: 0.44 ± 0.49 h

SMILES: CCOP(=O)(OCC)OCOC(=O)NC(C)(C)C(=O)N[C@H](COCc1ccccc1)C(=O)N1CCC2(CC1)CN(S(C)(=O)=O)c1ccccc12 [Compound 10, ((Diethoxyphosphoryl)oxy)methyl (R)-(1-((3-(benzoxy)-1-(1-(methylsulfonyl)spiro[indol-3,4′-piperidin]-1′-yl)-1-oxopropan-2-yl)amino)-2-methyl-1-oxopropan-2-yl)carbamate]
EC50 [4]: 152 nM

SMILES: CCC(C)C(=O)OC(C)OC(=O)NC(C)(C)C(=O)N[C@H](COCc1ccccc1)C(=O)N1CCC2(CC1)CN(S(C)(=O)=O)c1ccccc12 (stereo partly drawn) [Compound 12, (4R)-7,7-dimethyl-4-(1-(methylsulfonyl)spiro[indol-3,4′-piperidin]-1′-carbonyl)-6,9-dioxo-1-phenyl-2,10-dioxa-5,8-diazadodecan-11-yl 2-methylbutyrate]
EC50 [4]: 35.9 nM

SMILES: CC(=O)OC(C)OC(=O)NC(C)(C)C(=O)N[C@H](COCc1ccccc1)C(=O)N1CCC2(CC1)CN(S(C)(=O)=O)c1ccccc12 (stereo partly drawn) [Compound 14, (4R)-7,7-dimethyl-4-(1-(methylsulfonyl)spiro[indol-3,4′-piperidin]-1′-carbonyl)-6,9-dioxo-1-phenyl-2,10-dioxa-5,8-diazadodecan-11-yl Acetate]
Effect on GH level compared with ibutamoren (in words) ([1]; rat, in vivo): significantly better than that of ibutamoren
GH level in the circulation of rats (in words) ([1]; rat, in vivo): significantly increased
EC50 [4]: 47.2 nM

efflux ratio at 2 h, 2 μM ([6]; Caco-2, pH 7.4, Efflux Ratio): 189
Papp A→B at 2 h, 2 μM ([6]; Caco-2, pH 7.4, Mean Papp A to B): 0.198 ×10⁻⁶ cm/s
Papp B→A at 2 h, 2 μM [6]: 37.3 ×10⁻⁶ cm/s
SMILES: CC(=O)/C=C(/C)NC(C)(C)C(=O)N[C@H](COCc1ccccc1)C(=O)N1CCC2(CC1)CN(S(C)(=O)=O)c1ccccc12 [Compound 19, (R,Z)-N-(3-(benzoxy)-1-(1-(methylsulfonyl)spiro[indol-3,4′-piperidin]-1′-yl)-1-oxopropan-2-yl)-2-methyl-2-((4-oxopen-2-en-2-yl)amino)propionamide]

SMILES: CC(OC(=O)NC(C)(C)C(=O)N[C@H](COCc1ccccc1)C(=O)N1CCC2(CC1)CN(S(C)(=O)=O)c1ccccc12)OC(=O)C(C)(C)C (stereo partly drawn) [Compound 20, (4R)-7,7-dimethyl-4-(1-(methylsulfonyl)spiro[indolin-3,4′-piperidin]-1′-carbonyl)-6,9-dioxo-1-phenyl-2,10-dioxa-5,8-diazadodecan-11-yl Pivalate]
EC50 [4]: 37.7 nM

efflux ratio at 2 h, 2 μM ([7]; Table 3-1): 523
efflux ratio at 2 h, 2 μM ([7]; Table 3-2): 300
Papp A→B at 2 h, 2 μM ([7]; Table 3-1): 0.0229 ×10⁻⁶ cm/s
Papp A→B at 2 h, 2 μM ([7]; Table 3-2): 0.0476 ×10⁻⁶ cm/s
Papp B→A at 2 h, 2 μM ([7]; Table 3-1): 12 ×10⁻⁶ cm/s
Papp B→A at 2 h, 2 μM ([7]; Table 3-2): 14.3 ×10⁻⁶ cm/s
SMILES: C[C@H]1O[C@@H](O[C@H]2[C@@H](O)C[C@H](O[C@H]3[C@@H](O)C[C@H](O[C@H]4CC[C@@]5(C)[C@H](CC[C@@H]6[C@@H]5C[C@@H](O)[C@]5(C)[C@@H](C7=CC(=O)OC7)CC[C@]65O)C4)O[C@@H]3C)O[C@@H]2C)C[C@H](O)[C@@H]1O [Digoxin]

Papp B→A at 2 h, 2 μM [6]: 19.5 ×10⁻⁶ cm/s
Mean Papp B to A [8]: 24.1 10^−6 cm/s
AUC(0-inf) ([5]; rat, whole blood, po, 3 mg/kg): 14.3 ± 11 ng·h/mL
AUC(0-t) ([5]; rat, whole blood, po, 3 mg/kg): 6.97 ± 3.27 ng·h/mL
Cmax ([5]; rat, whole blood, po, 3 mg/kg): 3.49 ± 2.81 ng/mL
Tmax ([5]; rat, whole blood, po, 3 mg/kg): 1.06 ± 1.68 h
half-life ([5]; rat, whole blood, po, 3 mg/kg): 9.61 ± 12.1 h
SMILES: CC(C)(N)C(=O)N[C@H](COCc1ccccc1)C(=O)N1CCC2(CC1)CN(S(C)(=O)=O)c1ccccc12 [Ibutamoren, reference compound]
GH concentration in rats [1, 9]: 12.22 ± 9.90 ng/mL

— US20240190875A1, “SPIROINDOLINE DERIVATIVE, AND PREPARATION METHOD AND MEDICAL USE THEREOF” (CHANGCHUN GENESCIENCE PHARMACEUTICAL CO., LTD., priority 2021, published 2024)
